Results published in patent US20190352358A1, “COMPOUNDS, COMPOSITIONS AND USES THEREOF FOR IMPROVEMENT OF BONE DISORDERS” (ALIZE PHARMA III SAS, priority 2017, published 2019).
Non-standard residues stand in square brackets, D forms with d. Residues, ends and D or L forms follow the SMILES beside them. Primed or numbered codes have the meaning given here. No end group written: not given here. *: point of attachment. PEG20′ = PEG20 chain (pegylated), attached via a cysteine; C16 diacid = O=C(O)CCCCCCCCCCCCCCC(=O)*; Arachidoyl = CCCCCCCCCCCCCCCCCCCC(=O)*; Stearoyl = CCCCCCCCCCCCCCCCCC(=O)*; Palmitoyl = CCCCCCCCCCCCCCCC(=O)*

Legend:
[1] = system: MC-3T3 E1 clone 4 (CL4) osteoblast cells; test: Osteocalcin expression during in vitro osteoblast differentiation, PEGylated analogs (Example 6); assay type: cell-based; conditions: Table 17; test peptide 2 μg/mL; 18-21 day interval
Description: (§1) Each peptide was tested in a biologic assay measuring its ability to stimulate differentiation of osteoblast cells over a 18-21 day interval as assessed by the stimulation of osteocalcin protein synthesis. MC-3T3 E1 clone 4 (CL4) osteoblast cells were obtained from ATCC (Manassas, Va., USA). Cells were cultured in α-MEM containing 10% fetal bovine serum (FBS; Thermo Fisher Scientific, Pittsburgh, Pa., USA). After confluency, culture medium was changed to differentiation medium (DM), which contained 10% FBS plus 50 μg/mL ascorbic acid and 4 mM β-glycerol phosphate, with or without a test peptide (2 μg/mL). Fresh DM, with or without test peptide, was applied every 72 hours. The cell monolayers were lysed in a modified radioimmunoprecipitation assay (RIPA) buffer. Total cellular protein in the lysates was determined using BCA (Thermo Fisher Scientific, Rockford, Ill., USA). Cell proteins are separated on SD S-PAGE gel and transferred on PVDF membrane for analysis. Osteocalcin detection was performed using anti-osteocalcin antibody at 1:200 dilution (Santa Cruz Biotechnology, Inc, Santa Cruz, Calif., USA) and visualized using enhanced chemiluminescence (Thermo Fisher Scientific, Rockford, Ill., USA).

[2] = system: MC-3T3 E1 clone 4 (CL4) osteoblast cells; test: Osteocalcin expression during in vitro osteoblast differentiation, acylated and cyclic analogs (Example 7); assay type: cell-based; conditions: for Fold increase vs DM ± SE: Table 18, test peptide 1 μg/L, 18-21 day interval
Description: as §1, with “Each acylated” for “Each”, “(1 μg/L).” for “(2 μg/mL).”, “SDS-PAGE” for “SD S-PAGE”
In a separate experiment, the effect of cyclization was examined on of the HBD1 (3-11) peptide. The cyclic HBD1 (3-11) was synthetized and tested on the in vitro osteoblast differentiation assay.

[3] = Stability of HBD1 fragments in human plasma; assay type: in vitro ADME
Description: The peptides were spiked at 1 μg/mL (peptide backbone) into pre-warmed human K2EDTA plasma (at 37° C.) and incubated for up to 48 hours. Aliquots of plasma were extracted at specific time points (0, 24 and 48 hours post spike). Extraction was performed with acetonitrile:water (75:25, v/v) for HBD1 (1-13), HBD1 (1-13) with palmitic acid at the N-terminus (C16:0), HBD1 (3-11) with palmitic acid at the N-terminus (C16:0)) and HBD1 (3-11) with stearic acid at the N-terminus (C18:0) or with acetonitrile:water:formic acid (75:25:0.1, v/v/v) for HBD1 (3-11) and cyclic HBD1 (3-11). The peptides were analyzed using developed LC (C18 reverse phase column)—positive ion electrospray MS/MS methods specific to each peptide. The peak area at each time point was expressed as a percentage of the value obtained for the t=0 minutes time point.

[4] = system: MC-3T3 E1 clone 4 (CL4) osteoblast cells; test: Osteocalcin expression during in vitro osteoblast differentiation, various doses of analogs (Example 8); assay type: cell-based; conditions: Table 19, 18 day interval
Description: The peptides were tested at different concentrations in a biologic assay measuring their ability to stimulate differentiation of osteoblast cells over a 18 day interval as assessed by the stimulation of osteocalcin protein synthesis. MC-3T3 E1 clone 4 (CL4) osteoblast cells were obtained from ATCC (Manassas, Va., USA). Cells were cultured in α-MEM containing 10% fetal bovine serum (FBS; Thermo Fisher Scientific, Pittsburgh, Pa., USA). After confluency, culture medium was changed to differentiation medium (DM), which contained 10% FBS plus 50 μg/mL ascorbic acid and 4 mM β-glycerol phosphate, with or without an ascending dose of the peptide. Fresh DM, with or without the peptide, was applied every 72 hours. The cell monolayers were lysed in a modified radioimmunoprecipitation assay (RIPA) buffer. Total cellular protein in the lysates was determined using BCA (Thermo Fisher Scientific, Rockford, Ill., USA). Cell proteins are separated on SDS-PAGE gel and transferred on PVDF membrane for analysis. Osteocalcin detection was performed using anti-osteocalcin antibody at 1:200 dilution (Santa Cruz Biotechnology, Inc, Santa Cruz, Calif., USA) and visualized using enhanced chemiluminescence (Thermo Fisher Scientific, Rockford, Ill., USA).

[5] = Pharmacokinetics of acylated analogs in male Sprague Dawley rats after subcutaneous injection (Example 11); assay type: in vivo; set-up: AUC(0-t): concentration or dose not given beside the values; conditions: sc, rat, Table 24
Description: The peptides were reconstituted in saline (0.9% NaCl). Three male Sprague Dawley rats (approximately 6 weeks of age) were used per group. Subcutaneous doses were administered into the right flank of each animal […]. Following dosing, serial whole blood samples (ca. 0.3 mL) were collected from retro-orbital sinus into K2EDTA treated containers. Following each blood sample collection, samples were placed into a cooling block at 4° C. Samples were collected prior to dosing then at 15 and 30 minutes then 1, 2, 4, 6, 8 and 24 hours post dose for subcutaneous injection. Blood samples were centrifuged at 3500×rpm for 10 minutes at 4° C. and resultant plasma aspirated off into clean fully, labelled tubes. Plasma samples were snap frozen following aspiration then stored at −80° C. The peptides were extracted with acetonitrile:water (75:25, v/v) and analyzed using developed LC-MS/MS methods as described in Example 9. The limits of detection of these methods are 0.003 nmol/mL for HBD1 (1-13) with palmitic acid at the N-terminus (C16:0), 0.0008 nmol/mL for HBD1 (3-11) with palmitic acid at the N-terminus (C16:0), 0.0070 nmol/mL for HBD1 (3-11) with stearic acid at the N-terminus (C18:0), and 0.0015 nmol/mL for HBD1 (3-11) with myristic acid at the N-terminus (C14:0), HBD1 (3-11) with arachidic acid at the N-terminus (C20:0), HBD1 (3-11) with palmitic diacid at the N-terminus (C16:0-diacid), HBD1 (3-11) with palmitic acid at the C-terminus (C16:0). All values below these limits of quantification were considered as zero.

[6] = Pharmacokinetics in male Sprague Dawley rats after intravenous and subcutaneous injection (Example 10); assay type: in vivo; conditions: 1 μmol net peptide/kg, rat
Description: The peptides were reconstituted in saline (0.9% NaCl). Three male Sprague Dawley rats were used per group. Intravenous doses were administered into a lateral tail vein at the dose of 1 μmol net peptide/kg. Subcutaneous doses were administered into the right flank of each animal, also at the dose of 1 μmol net peptide/kg. Following dosing, serial whole blood samples (ca. 0.25 mL) were collected from a lateral tail vein into K2EDTA treated containers. Following each blood sample collection, samples were placed into a cooling block at 4° C. Samples were collected prior to dosing then at 2, 5, 15 and 30 minutes then 1, 2, 4, 6 and 8 and 24 hours post dose for intravenous injection and at 15 and 30 minutes then 1, 2, 4, 6, 8 and 24 hours post dose for subcutaneous injection.
Blood samples were centrifuged at 10000×g for 2 minutes at 4° C. and resultant plasma aspirated off into clean fully, labelled tubes. Plasma samples were snap frozen following aspiration then stored at −80° C. Peptides were extracted and analyzed as described in Example 9. The limits of quantification of these methods were 0.001 nmol/mL for cyclic HBD1 (3-11) and HBD1 (3-11) and 0.003 nmol/mL for HBD1 (1-13). All values below these limits of quantification were considered as zero.

[7] = male, Sprague Dawley, plasma, iv
[8] = male, Sprague Dawley, plasma, sc

| Compound | Fold increase vs SEQ ID NO: 1 ± SE [1] [fold] | Fold increase vs DM ± SE [2] [fold] | AUC(0-t) ([5]; male, Sprague Dawley, plasma) [µM·h] | Cmax ([5]; male, Sprague Dawley, plasma) [nM] | Tmax ([5]; male, Sprague Dawley, plasma) [min] | Tlast (last time point with detectable peptide) [5] [h] | other results |
| --- | --- | --- | --- | --- | --- | --- | --- |
| 64 (KHHLGLEEPKKLR; not fully specified; MOD_RES (13)..(13) Pegylated) [compound 64] | 2.2 ± 0.4 | – | – | – | – | – | – |
| CCCCCCCCCCCCCCCCCC(=O)N[C@@H](Cc1c[nH]cn1)C(=O)N[C@@H](CC(C)C)C(=O)NCC(=O)N[C@@H](CC(C)C)C(=O)N[C@@H](CCC(=O)O)C(=O)N[C@@H](CCC(=O)O)C(=O)N1CCC[C@H]1C(=O)N[C@@H](CCCCN)C(=O)N[C@@H](CCCCN)C(=O)O [compound 73] (Stearoyl-HLGLEEPKK-OH) | – | 2.93 ± 0.16 | 4.81 | 540 | 240 | 8 | stability in human plasma (in words) ([3]; 24 and 48 hours incubation at 37° C.): similar; remaining at 24 h, 1 μg/mL ([3]; human, human K2EDTA plasma, spiked at 1 μg/mL, 37° C., 24 hours, read-out: Remaining parent peptide in human plasma 24 hours post spike): 89%; remaining at 48 h, 1 μg/mL ([3]; human, human K2EDTA plasma, spiked at 1 μg/mL, 37° C., 48 hours, read-out: Remaining parent peptide in human plasma 48 hours post spike): 91%; Fold increase vs DM ± SD ([4]; dose 1.0 μM): 3.46 ± 0.47 fold; Fold increase vs DM ± SD ([4]; dose 2.0 μM): 4.48 ± 0.07 fold; Fold increase vs DM ± SD ([4]; dose 3.0 μM): 5.66 ± 0.45 fold |
| 67 ([PEG20′]CHLGLEEPKK) [compound 67] | 1.9 ± 0.2 | – | – | – | – | – | – |
| CC(C)C[C@@H]1NC(=O)CNC(=O)[C@H](CC(C)C)NC(=O)[C@H](Cc2c[nH]cn2)NC(=O)[C@H](CCCCN)NC(=O)[C@H](CCCCN)NC(=O)[C@@H]2CCCN2C(=O)[C@H](CCC(=O)O)NC(=O)[C@H](CCC(=O)O)NC1=O [SEQ ID NO: 77, Cyclic(HLGLEEPKK)] (cyclo(EEPKKHLGL)) | – | – | – | – | – | – | in vitro biological activity of acylated or cyclic peptides vs parent peptides (in words) ([2]; text on Table 18 and separate experiment): did not appear to change the in vitro biological activity; Tlast (last time point with detectable peptide) ([6]; iv, listed as Cyclic HBD1 (3-11)): 8 h; bioavailability ([6]; male, Sprague Dawley, plasma, subcutaneous, sc vs iv, read-out: F (bioavailability)): 48%; AUC(0-t) [6, 7]: 2.09 µM·h; Cmax [6, 7]: 5720 nM; Tmax [6, 7]: 1.98 min; AUC(0-t) [6, 8]: 0.99 µM·h; Cmax [6, 8]: 1060 nM; Tmax [6, 8]: 15 min; Tlast (last time point with detectable peptide) ([6]; sc, listed as Cyclic HBD1 (3-11)): 4 h; Tlast (last time point with detectable peptide) ([6]; sc, listed as cyclic HBD1 (3-11)): ≤ 4 h |
| 66 (HHLGLEEPKK; not fully specified; MOD_RES (10)..(10) Pegylated) [compound 66] | 2.2 ± 0.2 | – | – | – | – | – | – |
| CCCCCCCCCCCCCCCC(=O)NCCCC[C@H](NC(=O)[C@H](CCCCN)NC(=O)[C@@H]1CCCN1C(=O)[C@H](CCC(=O)O)NC(=O)[C@H](CCC(=O)O)NC(=O)[C@H](CC(C)C)NC(=O)CNC(=O)[C@H](CC(C)C)NC(=O)[C@@H](N)Cc1c[nH]cn1)C(=O)O [compound 76] (H-HLGLEEPKK(Palmitoyl)-OH; N-terminus and C-terminus assumed) | – | 3.18 ± 0.31 | – | – | – | 8 | AUC(0-t) ([5]; in vivo): 1.09 µM·h; Cmax ([5]; in vivo): 500 nM; Tmax ([5]; in vivo): 15 min |
| 65 ([PEG20′]CHHLGLEEPKK) [compound 65] | 1.4 ± 0.1 | – | – | – | – | – | – |
| CCCCCCCCCCCCCCCCCCCC(=O)N[C@@H](Cc1c[nH]cn1)C(=O)N[C@@H](CC(C)C)C(=O)NCC(=O)N[C@@H](CC(C)C)C(=O)N[C@@H](CCC(=O)O)C(=O)N[C@@H](CCC(=O)O)C(=O)N1CCC[C@H]1C(=O)N[C@@H](CCCCN)C(=O)N[C@@H](CCCCN)C(=O)O [compound 74] (Arachidoyl-HLGLEEPKK-OH) | – | 5.05 ± 0.95 | 2.58 | 250 | 120 | 8 | – |
| 63 ([PEG20′]CKHHLGLEEPKKLR) [compound 63] | 1.4 ± 0.3 | – | – | – | – | – | – |
| CC(C)C[C@H](NC(=O)CNC(=O)[C@H](CC(C)C)NC(=O)[C@H](Cc1c[nH]cn1)NC(=O)CCCCCCCCCCCCCCC(=O)O)C(=O)N[C@@H](CCC(=O)O)C(=O)N[C@@H](CCC(=O)O)C(=O)N1CCC[C@H]1C(=O)N[C@@H](CCCCN)C(=O)N[C@@H](CCCCN)C(=O)O [compound 75] ({C16 diacid}-HLGLEEPKK-OH; C-terminus assumed) | – | 3.39 ± 0.19 | 1.14 | 580 | 15 | 8 | – |
